Reference: patent US8080529B2, “Macrolides with anti-inflammatory activity” (Glaxo Group Limited, priority 2005, dated 2011)

Experiments:
Assay type in all cases: in vivo
[1] = system: IL-6; experiment: Lung neutrophilia induced by bacterial lipopolysaccharide in male BALB/cJ mice: IL-6 in BALF; conditions: 2.5 mg i.p.; 24 hours after LPS
Method: (§1) Male BALB/cJ mice (Iffa Credo, France), with average weight 30 g were randomly grouped (n=7 in testing group, 8 in positive control, 7 in negative control). Mice were administered intraperitoneally (i.p.) a single dose of 5 or 2.5 mg of test compound. Two hours after administration, 2 μg of bacterial lipopolysaccharide (LPS), dissolved in PBS in a volume of 60 μL, was intranasally administered to all experimental groups except the negative control group, which received the same volume (60 μL) of vehicle PBS. Animals were sacrificed approximately 24 hours after application of LPS in order to obtain bronchoalveolar lavage fluid (BALF), which was used to determine concentrations of IL-6 and TNF-α, absolute number of cells, and the percentage of neutrophils in BALF. Results are expressed as percentage of decrease of total cell number, relative number of neutrophils, and TNF-α, and IL-6 concentration in BALF of treated animals compared to positive control (LPS stimulated, but untreated animals).
(§2) Results are expressed as percentage of decrease of total cell number, relative number of neutrophils, and TNF-alpha and IL-6 concentration in BALF of treated animals compared to positive control (LPS stimulated, but untreated animals).

[2] = system: neutrophils; experiment: Lung neutrophilia induced by bacterial lipopolysaccharide in male BALB/cJ mice: cells in BALF and lung tissue; conditions: 2.5 mg i.p.; 24 hours after LPS
Method: as §1, §2
Besides accumulation of inflammatory cells in BALF, the extent and anatomic site of pulmonary inflammation induced by LPS was assessed 24 hours after PBS or LPS exposure. Accumulation of granulocytes and mononuclear cells in peribronchial (PB) and perivascular (PV) lung tissue areas and in alveolar spaces was monitored following sacrifice of the animals.

[3] = system: TNF-α; experiment: Lipopolysaccharide induced TNF-α production in Balb/cJ mice; conditions: Mus musculus, ip, 1.5 h; 10 mg/kg intraperitoneally, 30 min before LPS; 90 min after LPS; read-out: % inhibition of TNF-α production (plasma)
Method: Male Balb/cJ mice (Iffa Credo, France) weighing 25-33 g were randomly grouped (n=7 in test group, 7 in positive control group, 4 in negative control group). Test compounds, as well as vehicle [0.125% carboxymethyl-cellulose (Sigma, USA)], were administered to the mice intraperitoneally. Test compounds were administered at a dose of 10 mg/kg of body weight, in a volume of 10 mL/kg of body weight. Thirty minutes later, a sterile solution of lipopolysaccharide (LPS) (Sigma, USA) in saline was intraperitoneally administered at a concentration and volume of 25 μg/0.2 mL/mouse to each animal, except those in negative control. Ninety minutes following administration, all animals were sacrificed by puncturing a. carotis communis. The plasma concentration of TNF-α was determined by sandwich ELISA, using capture and detection antibodies (R&D, USA) according to manufacturer's recommendations. Results are presented in the following table as percent of inhibition of TNF-α production in comparison to the positive control (stimulated, but untreated animals).

[4] = system: TNF-α; experiment: Lung neutrophilia induced by bacterial lipopolysaccharide in male BALB/cJ mice: TNF-α in BALF; conditions: 2.5 mg i.p.; 24 hours after LPS
Method: as §1, §2

In the case of CC[C@H]1OC(=O)[C@H](C)[C@@H](O[C@H]2C[C@@](C)(OC)C(OC(=O)CCN(CC)CC)[C@H](C)O2)[C@H](C)[C@@H](O[C@@H]2O[C@H](C)C[C@H](N(C)C(C)=O)[C@H]2O)[C@](C)(OC)C[C@@H](C)C(=O)N[C@H](C)[C@@H](O)[C@]1(C)O (some centres unmarked) [Example 62, 3′-N-methyl-3′-N-acetyl-4″-O-(3-diethylaminopropionyl)-6-O-methyl-9a-aza-9a-homoerythromycin A], the “Percentage of decrease of IL-6 concentration in BALF” value [1] was 22%, the “% decrease of neutrophils in BALF” value [2] was 13% and the “% decrease of total cell no. in BALF” value [2] was 47%. For the same molecule, the inhibition in vivo at 10 mg/kg [3] was 59% and the “Percentage of decrease of TNF-α concentration in BALF” value [4] was 62%.
